# Experimental data published in patent US20230135945A1, “Method for Measuring Modulation in the Activity of a G Protein-Coupled Receptor” (CISBIO BIOASSAYS, priority 2017, published 2023).
# “Also recorded” adds a separate entry of the source. Where no end group is shown, it is not given here.
# T1: 5HT1A (Homo sapiens, UniProt P08908)
# T1 construct: purchased Perkin Elmer RBHS1AM400UA; host or cells: HEK293-EBNA
# T1 sequence (P08908 1-422): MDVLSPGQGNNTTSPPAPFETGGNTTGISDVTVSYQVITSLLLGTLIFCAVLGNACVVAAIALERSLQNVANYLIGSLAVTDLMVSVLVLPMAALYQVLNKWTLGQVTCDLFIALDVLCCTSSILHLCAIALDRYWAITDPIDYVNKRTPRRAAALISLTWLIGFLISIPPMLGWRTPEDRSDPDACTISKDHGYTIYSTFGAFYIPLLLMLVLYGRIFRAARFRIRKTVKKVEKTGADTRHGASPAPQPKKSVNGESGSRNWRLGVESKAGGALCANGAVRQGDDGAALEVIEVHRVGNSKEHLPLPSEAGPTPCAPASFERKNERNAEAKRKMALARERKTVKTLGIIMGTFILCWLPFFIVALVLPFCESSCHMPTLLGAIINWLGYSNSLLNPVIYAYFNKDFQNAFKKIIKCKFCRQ
# B1: DSV36S: anti-Galphai antibody generated by Cisbio Bioassays (antibody, V domains shown)
# VH: EVQLQQSGAELVRPGALVKLSCKASGFNIKDYYMHWVKQRPEQGLEWIGWIDPENGNTIYDPKFQGKASITADTSSNTAYLQLSSLTSEDTAVYYCTRGGGYYSDWYFDVWGAGTTVTVSS
# VL: QIVLTQSPAIMSASPGEKVTMTCSASSSVSYMHWYQQKSGTSPKRWIYDTSKLASGVPARFSGSGSGTSYSLTISSMEAEDAATYYCQQWSSNPPITFGAGTKLELK
# Columns and labels:
# Delta Opioid GPCR [1] = target: T2, Delta Opioid GPCR (Homo sapiens, UniProt P41143); assay: Activation test according to format 1A (TR-FRET, empty Galpha vs GDP-bound full form), HEK293 membranes; format: biochemical; settings: GDP 10 μM
# T2 construct: purchased Perkin Elmer 6110549400UA (HEK293)
# Description: (§1) All reagents were diluted in TrisHCl 50 mM pH 7.4, MgCl2 10 mM, NaCl 10 mM, BSA 0.1% buffer. The membranes were prepared 4× to distribute 1 μg/well (except for other specifications). The GDP, GTP or GTPγS nucleotides and test compounds (agonists or antagonists) were pre-mixed and prepared 4× to obtain the final concentrations in the wells mentioned in the graphs. […]
# The plates were incubated at 21° C. for 3 h or 20 h and then the HTRF signal was measured on the PHERAstar reader (BMG Labtech) with the following configuration: • Module: HTRF (Excitation 337nm, Emission 665nm and 620nm) • Excitation: laser, 40 flashes • Reading window: delays: 60 μs—Integration: 400 μs […]
# Delta Opioid GPCR [2] = target: T2, Delta Opioid GPCR; assay: Activation test according to format 2B (TR-FRET, full Galpha bound to GTPγS vs empty form), membranes expressing Delta Opioid GPCR and Galphai protein; format: biochemical; settings: for TR-FRET signal (HTRF ratio), inhibition of agonist activation by antagonist: SNC162 fixed 10 nM
# Description: All reagents were diluted in TrisHCl 50 mM pH 7.4, MgCl2 10 mM, NaCl 10 mM, BSA 0.1% buffer. The membranes were prepared 4× to distribute 1 μg/well (except for other specifications). The GDP, GTP or GTPγS nucleotides and test compounds (agonists or antagonists) were pre-mixed and prepared 4× to obtain the final concentrations in the wells mentioned in the graphs. All anti-Galphai reagents used for detection were prepared 4× to target the following final concentrations in the following wells: sdAbs-d2 (50 nM); antibody SC13533-d2 (0.1 nM); antibody SC13533-Lumi4Tb (0.25 nM); antibody DSV36S-d2 (0.1 nM); antibody DSV36S-Lumi4Tb (0.25 nM); antibody DSV3S-d2 (10 nM); antibody DSV39S-d2 (10 nM); antibody DSV26S-Lumi4Tb (0.25 nM); peptide KB1753-Biotin (50 nM) in combination with streptavidin-XL665 (SA-XL) (25 nM) (pre-incubated 30 minutes at room temperature before distribution in plates). • Distribution of reagents in the 384-well plates: • Membranes expressing GPCR and G protein: 5 μL • Nucleotides (GDP or GTP or GTPγS) ±Test compounds (agonists and/or antagonists): 5 μL • Anti-Galphai-acceptor ligand (d2 or XL665): 5 μL • Anti-Galphai-donor ligand (Lumi4Tb): 5 μL
# (§2) The plates were incubated at 21° C. for 3 h or 20 h and then the HTRF signal was measured on the PHERAstar reader (BMG Labtech) with the following configuration: • Module: HTRF (Excitation 337nm, Emission 665nm and 620nm) • Excitation: laser, 40 flashes • Reading window: delays: 60 μs—Integration: 400 μs
# After activation of GPCR and Galpha protein by a GPCR agonist, the decrease in the proportion of the full Galpha protein form bound to GTP or bound to GTPγS (due to an increase in the proportion of the empty Galpha protein form) is specifically detected using two ligands labeled with RET partners. Activation of GPCR results in a decrease in the RET signal.
# In a second step, the ability of a GPCR agonist to modulate the proportion of Galpha protein in empty form was tested with the same membranes and detection ligand pairs. HEK293 cell membranes expressing Delta Opioid GPCR and Galphai protein were incubated with GTPγS (10 nM) and GPCR agonist (SNC162) in increasing concentration. […] In a second condition, activation with a fixed concentration of GPCR agonist SNC162 (10 nM) was inhibited by an increasing concentration of GPCR antagonist (Naltrindole).
# On the other hand, membranes (10 μg/wells) of HEK293 or CHO-K1 cells expressing the Delta Opioid GPCR and Galphai protein were incubated with GTPγS (100 nM) alone or in combination with a saturated fixed concentration (1 μM) of the receptor agonist (SNC162).
# In a first condition, HEK293 cell membranes expressing Delta Opioid GPCR and Galphai protein were incubated with GTPγS (10 nM) and a GPCR agonist (SNC162) in increasing concentration.
# Delta Opioid GPCR [3] = target: T2, Delta Opioid GPCR; assay: Activation test according to format 2A (TR-FRET, empty Galpha vs GTP/GTPγS-bound full form), HEK293 membranes; format: biochemical
# 5HT1A = target: T1, 5HT1A; assay: Activation test format 2B on 5HT1A membranes (Example 7); format: biochemical; settings: HEK293 membranes 10 μg/well, GTPγS 100 nM, agonist 1 μM (FIG. 10)
# Description: as §1, §2
# Galpha protein = assay: Binding specificity of detection ligands for the forms of the Galpha protein
# Description: In order to evaluate the selectivity of antibodies between the different forms of the Galphai1 protein (GDP-bound full form vs. GTPgS-bound full form vs. empty form), the test was performed in parallel on TST-Galphai1 protein conditions pre-incubated in the buffer containing either GDP at 1 μM, GTPgS at 1 μM or no nucleotide. The best hybridomas were then cloned with a limit dilution step to obtain hybridoma clones.
# • the anti-Galphai antibody SC13533 was purchased from Santa Cruz Biotechnology (catalogue number SC13533). […] The antibodies were labeled with compatible fluorescent probes for TR-FRET detection (red—d2 acceptor or Lumi4Tb donor).
# T2 sequence (P41143 whole entry): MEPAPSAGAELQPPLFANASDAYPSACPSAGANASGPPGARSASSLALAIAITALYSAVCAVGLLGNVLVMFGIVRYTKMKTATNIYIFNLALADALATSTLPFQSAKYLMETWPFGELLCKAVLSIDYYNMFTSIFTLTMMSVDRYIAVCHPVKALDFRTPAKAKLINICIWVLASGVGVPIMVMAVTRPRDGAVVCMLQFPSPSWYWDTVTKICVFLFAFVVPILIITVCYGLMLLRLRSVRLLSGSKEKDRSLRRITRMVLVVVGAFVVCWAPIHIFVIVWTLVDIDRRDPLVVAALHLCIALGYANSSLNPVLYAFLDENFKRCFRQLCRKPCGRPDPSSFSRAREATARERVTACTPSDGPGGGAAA
molecule,measurement,setting,value
Oc1ccc2c3c1O[C@H]1c4[nH]c5ccccc5c4C[C@@]4(O)[C@@H](C2)N(CC2CC2)CC[C@]314 [Naltrindole],"TR-FRET signal (HTRF ratio), inhibition of agonist activation by antagonist","Delta Opioid GPCR [1]; SNC162 fixed 10 nM, antagonist in increasing concentration (FIG. 8B)",decrease in the TR-FRET signal
same,"TR-FRET signal (HTRF ratio), inhibition of agonist activation by antagonist","Delta Opioid GPCR [2]; Example 9, format 2B, GTPγS 10 nM, antagonist in increasing concentration (FIG. 12B)",increase in the TR-FRET signal
same,"TR-FRET signal (HTRF ratio), inhibition of agonist activation by antagonist","Delta Opioid GPCR [2]; Example 10, format 2B, GTPγS 10 nM, antagonist in increasing concentration, FIGS. 13B-18B",increase in the TR-FRET signal
same,"TR-FRET signal (HTRF ratio), inhibition of agonist activation by antagonist","Delta Opioid GPCR [2]; format 2B, HEK293 membranes, GTPγS 10 nM, antagonist in increasing concentration, Examples 1-3",increase in the TR-FRET signal
same,"TR-FRET signal (HTRF ratio), inhibition of agonist activation by antagonist","Delta Opioid GPCR [3]; GTPγS 10 nM, SNC162 fixed 10 nM, antagonist in increasing concentration (FIG. 9B)",decrease in the TR-FRET signal
C=CCN1C[C@H](C)N([C@@H](c2ccccc2)c2ccc(C(=O)N(CC)CC)cc2)C[C@H]1C [SNC162],TR-FRET signal (HTRF ratio) generated by stimulation with the agonist,"Delta Opioid GPCR [1]; agonist in increasing concentration, DSV39S-d2 + DSV26S-Lumi4Tb (FIG. 8B)",increase in the TR-FRET signal
same,TR-FRET signal (HTRF ratio) generated by stimulation with the agonist,"Delta Opioid GPCR [2]; Example 7, CHO-K1 membranes 10 μg/well, GTPγS 100 nM, agonist 1 μM (FIG. 10)",decrease in the TR-FRET signal
same,TR-FRET signal (HTRF ratio) generated by stimulation with the receptor agonist,"Delta Opioid GPCR [2]; Example 7, HEK293 membranes 10 μg/well, GTPγS 100 nM, agonist 1 μM, KB1753-biotin/SA-XL + SC13533-Lumi4Tb (FIG. 10)",decrease in the TR-FRET signal
same,TR-FRET signal (HTRF ratio) generated by stimulation with the agonist,"Delta Opioid GPCR [2]; Example 9, format 2B, GTPγS 10 nM, agonist in increasing concentration, DSV36S-Lumi4Tb/SC13533-d2 (FIG. 12B)",decrease in the TR-FRET signal
same,TR-FRET signal (HTRF ratio) generated by stimulation with the agonist,"Delta Opioid GPCR [2]; Example 10, format 2B, GTPγS 10 nM, agonist in increasing concentration, sdAb-d2 ligand pairs (FIGS. 13B-19B)",decrease in the TR-FRET signal
same,TR-FRET signal (HTRF ratio) generated by stimulation with the agonist,"Delta Opioid GPCR [2]; format 2B, HEK293 membranes, GTPγS 10 nM, agonist in increasing concentration, detection ligand pairs of Examples 1-4 (FIGS. 4B-7B)",decrease in the TR-FRET signal
same,TR-FRET signal (HTRF ratio) generated by stimulation with the agonist,"Delta Opioid GPCR [3]; Example 8, GTP 50, 1000 or 20000 nM, agonist 1 μM, membranes 1 μg/well, amplitude lower than with GTPγS (FIG. 11)",increase in the TR-FRET signal
same,TR-FRET signal (HTRF ratio) generated by stimulation with the agonist,"Delta Opioid GPCR [3]; Example 8, GTPγS 50, 1000 or 20000 nM, agonist 1 μM, membranes 1 μg/well (FIG. 11)",increase in the TR-FRET signal
same,TR-FRET signal (HTRF ratio) generated by stimulation with the agonist,"Delta Opioid GPCR [3]; GTPγS 10 nM, agonist in increasing concentration, DSV39S-d2 + DSV26S-Lumi4Tb (FIG. 9B)",increase in the TR-FRET signal
NCCc1c[nH]c2ccc(O)cc12 [serotonin],TR-FRET signal (HTRF ratio) generated by stimulation with the receptor agonist,5HT1A,decrease in the TR-FRET signal
"Ser-Ser-Arg-Gly-Tyr-Tyr-His-Gly-Ile-Trp-Val-Gly-Glu-Glu-Gly-Arg-Leu-Ser-Arg (SSRGYYHGIWVGEEGRLSR; also: biotinylated, place not given here) [KB1753, biotinylated form generated by Cisbio Bioassays]","Form of the Galpha protein specifically bound (empty, GDP-bound, GTP/non-hydrolyzable GTP-bound)",Galpha protein,specifically binds the form of the Galpha GTP or GTP protein that is non-hydrolyzable or slowly hydrolyzable relative to the forms of the empty Galpha protein and GDP; also recorded: specifically recognizes the full Galpha protein bound to GTP
B1,"Form of the Galpha protein specifically bound (empty, GDP-bound, GTP/non-hydrolyzable GTP-bound)",Galpha protein,specifically binds the form of the Galpha GTP or GTP protein that is non-hydrolyzable or slowly hydrolyzable relative to the forms of the empty Galpha protein and GDP
